In ChEMBL document CHEMBL5252583, “Cancer cell growth suppressibility of ω-3 fatty acid whose carboxy group converted to ester group” (Bioorg Med Chem Lett, 2023) one finds inhibition and Activity data, which are given here for four compounds.

The subject of one data set is MCF7. In words: Antiproliferative activity against human MCF7 cells assessed as cell growth inhibition at 500 uM measured after 24 hrs by alamar blue assay relative to control. The format is functional. In general terms: Alamar Blue is a resazurin reagent that responds to reducing activity.
In the next data set the test system is HCT-116. The data set is described as follows: Antiproliferative activity against human HCT-116 cells assessed as cell growth inhibition at 500 uM measured after 24 hrs by alamar blue assay relative to control. Format: functional.
A short description of data set [1]: Drug uptake in human MIA PaCa-2 cells assessed as increase in incorporation of compound into lipid droplets by measuring absorbance at 50 uM incubated for 24 hrs by Oil Red O staining based fluorescence microscopic analysis (reference value: 2.35 +/- 0.11 10^-2No_unit). Format: ADME, cell-based. The following applies: mia paca-2, 24 h.
The test system of another data set is MIA PaCa-2. In words: Antiproliferative activity against human MIA PaCa-2 cells assessed as cell growth inhibition at 500 uM measured after 24 hrs by alamar blue assay relative to control. Format: functional.

`CC/C=C\C/C=C\C/C=C\CCCCCCCC(=O)Oc1ccccc1`: the inhibition – broadly, the drop in the measured response relative to a control, in per cent – at 500 µM in the data set with MCF7 stood at 48%; in the data set with HCT-116, 36%; in the data set with MIA PaCa-2, 23%. The Activity in data set [1] is reported as 4.12 10^-2No_unit.

On to `CC/C=C\C/C=C\C/C=C\CCCCCCCC(=O)Oc1ccc(OC)cc1`, for which the values for the inhibition at 500 µM in the data set with MCF7, in the data set on HCT-116 and with MIA PaCa-2 were 49%, 40% and 26%, respectively. Also, the Activity in data set [1] is listed as 3.94 10^-2No_unit.

With `CC/C=C\C/C=C\C/C=C\CCCCCCCC(=O)Oc1ccc(C(F)(F)F)cc1`, the inhibition at 500 µM was 47% in the data set on MCF7, 37% in the data set on HCT-116 and 25% in the data set on MIA PaCa-2. Moreover, in data set [1], the Activity is on record as 4.07 10^-2No_unit.

For the compound `CC/C=C\C/C=C\C/C=C\CCCCCCCC(=O)O` [LINOLENIC ACID], the figures for the inhibition at 500 µM with MCF7, with HCT-116 and in the data set on MIA PaCa-2 were 50%, 36% and 25%, respectively. Also, the Activity in data set [1] is 4.19 10^-2No_unit.
